Source: patent US12077483B2, “Modified amine lipids” (Intellia Therapeutics, Inc., priority 2018, dated 2024)

Tests used:
[1] = RNA encapsulation efficiency of LNP (Ribogreen fluorescence assay); assay type: physicochemical; conditions: LNP with the compound as amine lipid
Method: A fluorescence-based assay (Ribogreen®, ThermoFisher Scientific) is used to determine total RNA concentration and free RNA. Encapsulation efficiency is calculated as (Total RNA—Free RNA)/Total RNA. LNP samples are diluted appropriately with 1× TE buffer containing 0.2% Triton-X 100 to determine total RNA or 1× TE buffer to determine free RNA. Standard curves are prepared by utilizing the starting RNA solution used to make the compositions and diluted in 1× TE buffer+/−0.2% Triton-X 100. Diluted RiboGreen® dye (according to the manufacturer's instructions) is then added to each of the standards and samples and allowed to incubate for approximately 10 minutes at room temperature, in the absence of light. A SpectraMax M5 Microplate Reader (Molecular Devices) is used to read the samples with excitation, auto cutoff and emission wavelengths set to 488 nm, 515 nm, and 525 nm respectively. Total RNA and free RNA are determined from the appropriate standard curves.
Encapsulation efficiency is calculated as (Total RNA−Free RNA)/Total RNA. The same procedure may be used for determining the encapsulation efficiency of a DNA-based cargo component. For single-strand DNA, Oligreen Dye may be used and for double-strand DNA, Picogreen Dye.

[2] = LNP average particle size and polydispersity by dynamic light scattering; assay type: physicochemical; conditions: LNP with the compound as amine lipid
From the text: The LNPs have a size of about 1 to about 1,000 nm, about 10 to about 500 nm, about 20 to about 500 nm, in a sub-embodiment about 50 to about 400 nm, in a sub-embodiment about 50 to about 300 nm, in a sub-embodiment about 50 to about 200 nm, and in a sub-embodiment about 50 to about 150 nm, and in another sub-embodiment about 60 to about 120 nm. Preferably, the LNPs have a size from about 60 nm to about 100 nm. The average sizes (diameters) of the fully formed LNP, may be measured by dynamic light scattering on a Malvern Zetasizer. The LNP sample is diluted in phosphate buffered saline (PBS) so that the count rate is approximately 200-400 kcps. The data is presented as a weighted average of the intensity measure.
In some embodiments, the LNPs have a size of about 75 to about 120 nm. In some embodiments, the LNPs have a size of about 75 to about 100 nm. Unless indicated otherwise, all sizes referred to herein are the average sizes (diameters) of the fully formed nanoparticles, as measured by dynamic light scattering on a Malvern Zetasizer. The nanoparticle sample is diluted in phosphate buffered saline (PBS) so that the count rate is approximately 200-400 kcps. The data is presented as a weighted-average of the intensity measure (Z-average diameter).
Dynamic Light Scattering (“DLS”) is used to characterize the polydispersity index (“pdi”) and size of the LNPs of the present disclosure. DLS measures the scattering of light that results from subjecting a sample to a light source. PDI, as determined from DLS measurements, represents the distribution of particle size (around the mean particle size) in a population, with a perfectly uniform population having a PDI of zero. Electropheretic light scattering is used to characterize the surface charge of the LNP at a specified pH. The surface charge, or the zeta potential, is a measure of the magnitude of electrostatic repulsion/attraction between particles in the LNP suspension. Asymmetric-Flow Field Flow Fractionation—Multi-Angle Light Scattering (AF4-MALS) is used to separate particles in the composition by hydrodynamic radius and then measure the molecular weights, hydrodynamic radii and root mean square radii of the fractionated particles. […] Nanoparticle tracking analysis (NTA, Malvern Nanosight) can be used to determine particle size distribution as well as particle concentration. LNP samples are diluted appropriately and injected onto a microscope slide. A camera records the scattered light as the particles are slowly infused through field of view. After the movie is captured, the Nanoparticle Tracking Analysis processes the movie by tracking pixels and calculating a diffusion coefficient. This diffusion coefficient can be translated into the hydrodynamic radius of the particle. The instrument also counts the number of individual particles counted in the analysis to give particle concentration.
LNP compositions are analyzed for average particle size, polydispersity index (pdi), total RNA content, encapsulation efficiency of RNA, and zeta potential. LNP compositions may be further characterized by lipid analysis, AF4-MALS, NTA, and/or cryo-EM. Average particle size and polydispersity are measured by dynamic light scattering (DLS) using a Malvern Zetasizer DLS instrument. LNP samples were diluted with PBS buffer prior to being measured by DLS. Z-average diameter which is an intensity-based measurement of average particle size was reported along with number average diameter and pdi. A Malvern Zetasizer instrument is also used to measure the zeta potential of the LNP. Samples are diluted 1:17 (50 μL into 800 μL) in 0.1×PBS, pH 7.4 prior to measurement.

mouse TTR = assay: Serum TTR ELISA in mice after LNP delivery; assay type: in vivo; conditions: mouse serum, relative to TSS control of same experiment
Method: For studies measuring in vivo editing in liver, CD-1 female mice were dosed at 0.1 mpk unless otherwise noted. Animals were euthanized at 6 or 7 days by exsanguinationvia cardiac puncture under isoflourane anesthesia. Liver tissue was collected from each animal for DNA extraction and analysis. Blood was collected into serum separator tubes or into tubes containing buffered sodium citrate for plasma as described herein. Cohorts of mice were measured for editing by Next-Generation Sequencing (NGS).
Blood was collected and the serum was isolated as indicated. The total mouse TTR serum levels were determined using a Mouse Prealbumin (Transthyretin) ELISA Kit (Aviva Systems Biology, Cat. OKIA00111). Briefly, sera were serial diluted with kit sample diluent, e.g. to a final dilution of 10,000-fold and/or 2,500-fold. The diluted sample was then added to the ELISA plates and the assay was then carried out according to directions. Serum TTR data from treatment groups are expressed as a percentage of vehicle control levels.

[3] = pKa of amine lipid by TNS fluorescence; assay type: physicochemical; conditions: probe TNS (6-(p-toluidino)-2-naphthalenesulfonic acid sodium salt), unformulated amine lipid in ethanol, sodium phosphate buffers -9.0
Method: The pKa of each amine lipid was determined according to the method in Jayaraman, et al. (Angewandte Chemie, 2012) with the following adaptations. The pKa was determined for unformulated amine lipid in ethanol. Lipid stock solutions (2.94 mM) were diluted into Sodium Phosphate Buffers (0.1 M, Boston Bioproducts) of different pH (pH-range: 4.5-9.0) yielding a final lipid concentration of approx. 100 μM. The test samples were supplemented with TNS {6-(p-Toluidino)-2-naphthalenesulfonic acid sodium salt}, incubated and the fluorescence intensity was measured using excitation and emission wavelengths of 321 nm and 448 nm, respectively. The recorded data were normalized and the respective pKa values were derived from sigmoidal fitting.

[4] = Expt. 4, composition ratio (mol %) 50/9/38/3 for Cmpnd 49, 50/10/38.5/1.5 for the others
[5] = Expt. 1, composition ratio (mol %) 50/9/38/3 for Cmpnd 49, 50/10/38.5/1.5 for the others
[6] = Expt. 2, composition ratio (mol %) 50/9/39.5/3 for Cmpnd 49, 50/9/39.5/1.5 for the others
[7] = Expt. 10, composition ratio (mol %) 50/9/38/3 for Cmpnd 49, 50/10/38.5/1.5 for the others
[8] = Expt. 5, composition ratio (mol %) 50/10/38.5/1.5
[9] = Expt. 9, composition ratio (mol %) 50/9/38/3 for Cmpnd 49, 50/10/38.5/1.5 for the others

Compound: CCCCC/C=C\C/C=C\CCCCCCCC(=O)OCC(COC(=O)CCCCCCC/C=C\C/C=C\CCCCC)OC(=O)CCC(CCCCCCC)OC(=O)NCCN(C)CC (stereo not drawn) [Compound 73, 2-((4-(((2-(ethyl(methyl)amino)ethyl)carbamoyl)oxy)undecanoyl)oxy)propane-1,3-diyl (9Z,9′Z,12Z,12′Z)-bis(octadeca-9,12-dienoate)]
- Encapsulation (%) [1, 4]: 97%
- Num Ave Size (nm) [2, 4]: 76.59 nm
- PDI [2, 4]: 0.029
- Z-Ave Size (nm) [2, 4]: 95.81 nm
- Serum TTR % TSS (mouse TTR; dose 0.03 mpk): 25% TSS
- Serum TTR % TSS (mouse TTR; dose 0.1 mpk): 4% TSS
- pKa [3]: 6.41

Compound: CCCCCCCCCCOC(=O)CCCCCCCC(=O)OCC(COC(=O)CCCCCCCC(=O)OCCCCCCCCCC)OC(=O)CCC(CCCCCCCC)OC(=O)NCCN(C)CC (stereo not drawn) [Compound 57, 9,9′-didecyl O′1,O1-(2-((4-(((2-(ethyl(methyl)amino)ethyl)carbamoyl)oxy)dodecanoyl)oxy)propane-1,3-diyl) di(nonanedioate)]
- Encapsulation (%) [1, 5]: 98%
- Num Ave Size (nm) [2, 5]: 83.73 nm
- PDI [2, 5]: 0.02
- Z-Ave Size (nm) [2, 5]: 100.40 nm
- Serum TTR % TSS (mouse TTR; dose 0.1 mpk): 24.58 % TSS
- pKa [3]: 6.18

Compound: CCCCC/C=C\C/C=C\CCCCCCCC(=O)OCC(COC(=O)CCCCCCC/C=C\C/C=C\CCCCC)OC(=O)CCC(CCCC)OC(=O)NCC1CCCN1C (stereo not drawn) [Compound 67, 2-((4-((((1-methylpyrrolidin-2-yl)methyl)carbamoyl)oxy)octanoyl)oxy)propane-1,3-diyl (9Z,9′Z,12Z,12′Z)-bis(octadeca-9,12-dienoate)]
- Encapsulation (%) [1, 6]: 99%
- Num Ave Size (nm) [2, 6]: 82.14 nm
- PDI [2, 6]: 0.043
- Z-Ave Size (nm) [2, 6]: 102.20 nm
- Serum TTR % TSS (mouse TTR; dose 0.03 mpk): 65.41 % TSS
- pKa [3]: 6.43

Compound: CCCCC/C=C\C/C=C\CCCCCCCC(=O)OCC(COC(=O)CCCCCCC/C=C\C/C=C\CCCCC)OC(=O)CCC(CCCCCCCC)OC(=O)OCCCCN(CC)CC (stereo not drawn) [Compound 95, 2-((4-(((4-(diethylamino)butoxy)carbonyl)oxy)dodecanoyl)oxy)propane-1,3-diyl (9Z,9′Z,12Z,12′Z)-bis(octadeca-9,12-dienoate)]
- Encapsulation (%) [1, 7]: 98%
- Num Ave Size (nm) [2, 7]: 88 nm
- PDI [2, 7]: 0.01
- Z-Ave Size (nm) [2, 7]: 105 nm
- Serum TTR % TSS (mouse TTR; dose 0.03 mpk): 77% TSS
- pKa [3]: 6.15

Compound: CCCCC/C=C\C/C=C\CCCCCCCC(=O)OCC(COC(=O)CCCCCCC/C=C\C/C=C\CCCCC)OC(=O)CCC(CCCCCC)OC(=O)NC(C)(C)CN1CCCC1 (stereo not drawn) [Compound 79, 2-((4-(((2-methyl-1-(pyrrolidin-1-yl)propan-2-yl)carbamoyl)oxy)decanoyl)oxy)propane-1,3-diyl (9Z,9′Z,12Z,12′Z)-bis(octadeca-9,12-dienoate)]
- Encapsulation (%) [1, 8]: 98%
- Num Ave Size (nm) [2, 8]: 55 nm
- PDI [2, 8]: 0.09
- Z-Ave Size (nm) [2, 8]: 75.00 nm
- Serum TTR % TSS (mouse TTR; dose 0.03 mpk): 86.9 % TSS
- Serum TTR % TSS (mouse TTR; dose 0.1 mpk): 100.4 % TSS
- pKa [3]: 4.96

Compound: CCCCC/C=C\C/C=C\CCCCCCCC(=O)OCC(COC(=O)CCCCCCC/C=C\C/C=C\CCCCC)OC(=O)CCC(CCCCCCCC)OC(=O)NCCN(C)C (stereo not drawn) [Compound 91, 2-((4-(((2-(dimethylamino)ethyl)carbamoyl)oxy)dodecanoyl)oxy)propane-1,3-diyl (9Z,9′Z,12Z,12′Z)-bis(octadeca-9,12-dienoate)]
- Encapsulation (%) [1, 7]: 98%
- Num Ave Size (nm) [2, 7]: 82 nm
- PDI [2, 7]: 0.01
- Z-Ave Size (nm) [2, 7]: 97 nm
- Serum TTR % TSS (mouse TTR; dose 0.03 mpk): 89% TSS
- pKa [3]: 6.48

Compound: CCCCC/C=C\C/C=C\CCCCCCCC(=O)OCC(COC(=O)CCCCCCCC(=O)OCCCCCCCCCCC)OC(=O)CC(CCCCCCCC)OC(=O)NCCN(C)CC (stereo not drawn) [Compound 62, 1-(3-methyl-13-((((9Z,12Z)-octadeca-9,12-dienoyl)oxy)methyl)-9-octyl-7,11-dioxo-8,12-dioxa-3,6-diazatetradecan-14-yl) 9-undecyl nonanedioate]
- Encapsulation (%) [1, 5]: 97%
- Num Ave Size (nm) [2, 5]: 87.26 nm
- PDI [2, 5]: 0.04
- Z-Ave Size (nm) [2, 5]: 106.40 nm
- Serum TTR % TSS (mouse TTR; dose 0.1 mpk): 57.89 % TSS
- pKa [3]: 6.32

Compound: CCCCC/C=C\C/C=C\CCCCCCCC(=O)OCC(COC(=O)CCCCCCC/C=C\C/C=C\CCCCC)COC(=O)C(C)(C)C(CCCCCC)OC(=O)NCCN1CCCC1 (stereo not drawn) [Compound 100, 2-(((2,2-dimethyl-3-(((2-(pyrrolidin-1-yl)ethyl)carbamoyl)oxy)nonanoyl)oxy)methyl)propane-1,3-diyl (9Z,9′Z,12Z,12′Z)-bis(octadeca-9,12-dienoate)]
- Encapsulation (%) [1, 9]: 99%
- Num Ave Size (nm) [2, 9]: 83 nm
- PDI [2, 9]: 0.05
- Z-Ave Size (nm) [2, 9]: 102 nm
- Serum TTR % TSS (mouse TTR; dose 0.03 mpk): 46.68 % TSS
- pKa [3]: 6.6

Compound: CCCCC/C=C\C/C=C\CCCCCCCC(=O)OCC(COC(=O)CCCCCCC/C=C\C/C=C\CCCCC)OC(=O)CCC(CCCCCC)OC(=O)NCCN1CCCCC1 (stereo not drawn) [Compound 78, 2-((4-(((2-(piperidin-1-yl)ethyl)carbamoyl)oxy)decanoyl)oxy)propane-1,3-diyl (9Z,9′Z,12Z,12′Z)-bis(octadeca-9,12-dienoate)]
- Encapsulation (%) [1, 8]: 97%
- Num Ave Size (nm) [2, 8]: 59 nm
- PDI [2, 8]: 0.13
- Z-Ave Size (nm) [2, 8]: 91.00 nm
- Serum TTR % TSS (mouse TTR; dose 0.03 mpk): 99.8 % TSS
- Serum TTR % TSS (mouse TTR; dose 0.1 mpk): 66.5 % TSS
- pKa [3]: 5.93
